{
  "source": "ChEMBL document CHEMBL1142584",
  "about": "“Insect antifeedants from Croton jatrophoides: structures of zumketol, zumsenin, and zumsenol” (2005)",
  "format_in_all_cases": "functional",
  "key": {"[1]": {"tested_on": "Pectinophora gossypiella", "assay": "Antifeedant activity against Pectinophora gossypiella second-instar larvae assessed as 50 % protection after 48 hrs"}, "[2]": {"tested_on": "Pectinophora gossypiella", "assay": "Antifeedant activity against Pectinophora gossypiella second-instar larvae assessed as 90 % protection after 48 hrs"}, "[3]": {"tested_on": "Spodoptera frugiperda", "assay": "Antifeedant activity against Spodoptera frugiperda second-instar larvae assessed as 50 % protection after 48 hrs"}, "[4]": {"tested_on": "Spodoptera frugiperda", "assay": "Antifeedant activity against Spodoptera frugiperda second-instar larvae assessed as 90 % protection after 48 hrs"}},
  "data": [
    {"smiles": "CC(=O)O[C@H]1[C@H](OC(C)=O)[C@]2(C)C(=CC[C@H]2c2ccoc2)[C@]2(C)C(=O)C[C@H]3C(C)(C)O[C@H]4C[C@H](O)C(=O)[C@]43[C@@H]12", "note": "[ZUMKETOL]", "values": [
      {"measurement": "Activity", "setting": "[1]", "result": 0.5, "unit": "µg/mL"},
      {"measurement": "Activity", "setting": "[2]", "result": 2, "unit": "µg/mL"},
      {"measurement": "Activity", "setting": "[3]", "result": 3, "unit": "µg/mL"},
      {"measurement": "Activity", "setting": "[4]", "result": 16, "unit": "µg/mL"}
    ]}
  ]
}
